According to PubChem BioAssay (NCI):
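In this assay, cells in 96-well plates receive the compound at five concentrations for 48 hours. Endpoints are linearly interpolated between the surrounding concentrations. TGI denotes the concentration required for complete inhibition of growth.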

Experiments:
Experiment in all cases: DTP human tumour cell line panel, 48 h
NCI-H522 lung = test system: NCI-H522 lung
KM20L2 colon = test system: KM20L2 colon
M19-MEL melanoma = test system: M19-MEL melanoma
UACC-257 melanoma = test system: UACC-257 melanoma
XF 498 CNS = test system: XF 498 CNS
DMS 273 small cell lung = test system: DMS 273 small cell lung
DMS 114 small cell lung = test system: DMS 114 small cell lung
SNB-78 CNS = test system: SNB-78 CNS
KM12 colon = test system: KM12 colon
DLD-1 colon = test system: DLD-1 colon
HOP-62 NSCLC = test system: HOP-62 NSCLC
SK-OV-3 ovarian = test system: SK-OV-3 ovarian
NCI-H460 lung = test system: NCI-H460 lung
HOP-18 NSCLC = test system: HOP-18 NSCLC
M14 melanoma = test system: M14 melanoma
CCRF-CEM leukemia = test system: CCRF-CEM leukemia
LXFL 529 NSCLC = test system: LXFL 529 NSCLC

SMILES: Cc1nc2c(o1)C(=Nc1ccccc1)c1ccccc1C2=O
- TGI (NCI-H522 lung): 15.8 µM
- TGI (KM20L2 colon): 31.2 µM
- TGI (M19-MEL melanoma): 3.65 µM
- TGI (UACC-257 melanoma): 19.5 µM
- TGI (XF 498 CNS): 12.5 µM
- TGI (DMS 273 small cell lung): 23.2 µM
- TGI (DMS 114 small cell lung): 8.57 µM
- TGI (SNB-78 CNS): 37.6 µM
- TGI (KM12 colon): 30.9 µM
- TGI (DLD-1 colon): 32 µM
- TGI (HOP-62 NSCLC): 28.1 µM
- TGI (SK-OV-3 ovarian): 28 µM
- TGI (NCI-H460 lung): 25.5 µM
- TGI (HOP-18 NSCLC): 18 µM
- TGI (M14 melanoma): 21.4 µM
- TGI (CCRF-CEM leukemia): 45.9 µM
- TGI (LXFL 529 NSCLC): 24.1 µM
